Assay results published in EP0021229A1, “Arylazo compounds, their preparation and their use” (priority 1979, dated 1981).

Biological target: T1, prostaglandin-15-dehydrogenase (Homo sapiens, UniProt P15428)
T1 construct: from tissue
T1 sequence (P15428 1-266): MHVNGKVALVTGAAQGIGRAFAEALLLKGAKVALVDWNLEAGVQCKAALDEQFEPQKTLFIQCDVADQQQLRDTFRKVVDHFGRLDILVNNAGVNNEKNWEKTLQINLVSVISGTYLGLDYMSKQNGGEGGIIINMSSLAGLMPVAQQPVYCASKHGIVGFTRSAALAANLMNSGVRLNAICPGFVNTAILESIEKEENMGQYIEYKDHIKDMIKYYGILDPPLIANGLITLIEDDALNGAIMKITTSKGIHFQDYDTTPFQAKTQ
Test: Inhibition of prostaglandin F2a inactivation in cell-free organ preparations (Hoult and Moore)
Assay type: biochemical
Conditions: in vitro, radioactive prostaglandin F2a incubated with cellfree preparations of different organs; compared to sulfasalazine (compound A)
Protocol: Radioactive prostaglandin F2a was incubated with cellfree preparations of different organs (containing prostaglandin-15-dehydrogenase) according to Hoult and Moore, British Journal of Pharmacology, Vol. 61 (1977), p. 615. After a suitable time the prostaglandins were extracted and separated by chromatography. Then the amount of remaining prostaglandin F 2a was compared with the amounts of metabolites. The inhibiting effect was obtained by the addition of the compounds according to the invention during the incubation and comparison with control experiments without such addition. The results may be represented either as a concentration giving 50% inhibition of the prostaglandin inactivation, or as an inhibition in per cen at a certain concentration of the studied compound. In the following table the results for some compounds according to the invention are shown compared to the known drug sulfasalazine.

Structure (SMILES) | activity (inhibition of the prostaglandin inactivation) compared with compound A, in words | activity (inhibition of the prostaglandin inactivation) relative to the known compound A [times]
O=C(O)Cc1cc(N=Nc2ccccc2)ccc1O [C, 2-hydroxy-5-phenylazo-benzeneacetic acid] | significantly more active than compound A | –
O=C(O)Cc1cc(N=Nc2ccc(S(=O)(=O)Nc3ccccn3)cc2)ccc1O [compound B] | – | 50
